According to patent US8313752B2, “Macrocyclic lactone combination compositions, vaccines and methods for producing same” (Merial Limited, priority 2009, dated 2012):
Values joined by “and” are separate entries in the source; they are usually repeats but may differ in a detail not shown here. Identical values can stand only once. Like-named read-outs stand apart in the source and are kept apart here. Values belong to the molecule of their own block, whether it stands above or below them.

Experiments:
[1] = ML residues in milk of lactating dairy cows after single IM dose of ML/vaccine combination (LC-MS/MS); format: in vivo, Dairy cows (Friesian and Friesian cross); conditions: for Residues in milk at 7 days after treatment relative to ACVM MRLs / Residues in milk at 21 days after treatment relative to LOQ: 0.3 and 0.4 mg/kg IM; for concentration at 7 day / concentration at 14 day / concentration at 21 day: female, Friesian and Friesian cross, cattle, intramuscular; for concentration at 7 day / concentration at 14 day / concentration at 21 day / ML residue in milk, Day 7 / ML residue in milk, Day 14 / ML residue in milk, Day 21 / ML residue in milk fat, Day 7 / ML residue in milk fat, Day 14 / ML residue in milk fat, Day 21: individual cows
Procedure: (§1) Study Objectives: 1) To measure ML residues in milk and tissues of lactating dairy cows after a single dose of an experimental formulation of eprinomectin, ivermectin, moxidectin or doramectin combined with an inactivated rotavirus, coronavirus and Escherichia coli vaccine was administered by intramuscular injection at 0.3 and 0.4 mg macrocyclic lactone/kg bodyweight. 2) To evaluate local tissue irritancy of the experimental formulations when administered to cattle by intramuscular injection.
Experimental formulations of each of four macrocyclic lactones were separately combined with equal parts of a registered vaccine, Rotavec® Corona (Schering-Plough). The recommended dose of Rotavec® Corona is 2 mL per animal, which was diluted to produce 4 mL of ML/vaccine combination. Each ML/vaccine combination contained 40 mg/mL macrocyclic lactone.
Methods: On day −5, fifty-four animals were identified for screening and were checked for mastitis by palpation of the mammary gland, visualization of the mammary secretions and Rapid Mastitis Test (RMT, Immucell, Portland, Me.). Individual milk samples were collected for somatic cell count (SCC) and thirty-three animals that met the inclusion criteria were selected for the study. Of the thirty-three animals, the cow with the highest average daily milk yield, as assessed over a seven-day period, was allocated as the control. The remaining thirty-two animals were ranked from highest to lowest on average daily milk yield, over the same time period, and divided into four blocks of eight animals each. A random number was generated for each animal using the Microsoft Excel random number generator function. Within each block, the lowest random number was allocated to Group 1, the second lowest to Group 2 and sequentially through to Group 8, creating eight groups of four animals each (Table 18).
On Day 0, the cows were weighed and blood samples were collected from all animals in Groups 1 and 2 for use in a subsequent plasma eprinomectin assay. The blood samples were stored frozen at or colder than −18° C. pending laboratory analysis. Each animal was treated with the indicated formulation at the appropriate dose rate. Doses were calculated based upon the animal's Day 0 bodyweight to provide approximately 40 mg ML/mL. Calculated doses were rounded up to the nearest 0.2 mL.
(§2) The formulations were administered by deep intramuscular injection in the anterior neck region. Injection sites were clean and dry and inspected for lesions prior to injection. Injections were administered with a different 10 mL syringe for each product. A sterile 18 gauge 1½ inch needle was used for each injection. The time of treatment was recorded. Evidence of pain on injection was assessed.
Blood samples were collected from all animals in Groups 1 and 2 for plasma eprinomectin assay on Days 1, 3 and 7 and stored frozen as described. The time of blood collection was recorded. Herd test equipment (De Laval) was used to collect an approximately 2% sample representative of the entire milking for each individual cow at the morning milking on each of Days 1-10 following treatment, and at the morning milking on Days 14, 21 and 35. Duplicate subsamples were decanted for each cow in Groups 1-4 and 7-9 and triplicate subsamples were decanted for each cow in Groups 5-6. Each sample from treated animals measured approximately 30 mL. The start and finish times for each milking of the 33 study animals were recorded to give an estimate of the actual time of milk sample collection.
The study animals were milked after the main herd. The milk line was thoroughly flushed with cold water prior to milking the study animals. The herd test equipment was cleaned between samplings. It was washed “in-line” with the milking plant wash. Sample vessels were then further cleaned through a dishwasher. The sampler connections were further cleaned by soaking in hot acid, then rinsed. Milk yields at each milking at which samples were collected were measured and recorded. […]

[2] = cited from earlier work
[3] = lactating cattle; cited from earlier work
cattle = test: Local tissue irritancy / injection site reactions after intramuscular injection; format: in vivo, Dairy cows (Friesian and Friesian cross); conditions: for Injection site reactions, Count, Day 1 / Injection site reactions, Count, Day 3 / Injection site reactions, Count, Day 7 / Injection site reactions, Count, Day 14 / Injection site reactions, Count, Day 21: cows with reaction in group of 4; for Animals with injection site reactions that persisted at least until 21 days after treatment: group of 4 cows
Procedure: as §1, §2
Injection sites were examined by inspection and palpation at the morning milking on Days 1, 3, 7 and 14. Any visible or palpable reactions were described and measured (width, length and depth). Reactions that persisted after day 14 were re-evaluated on Day 21.

[4] = milk, 0.3 mg/kg, nominal 0.3 mg/kg single IM dose of ML/Rotavec Corona combination, milk (whole milk), read-out: ML residue in milk, Day 21
[5] = nominal 0.3 mg/kg single IM dose of ML/Rotavec Corona combination, milk (whole milk)
[6] = nominal 0.3 mg/kg single IM dose of ML/Rotavec Corona combination, milk fat
[7] = nominal 0.4 mg/kg single IM dose of ML/Rotavec Corona combination, milk (whole milk)
[8] = nominal 0.4 mg/kg single IM dose of ML/Rotavec Corona combination, milk fat
[9] = administered topically to cattle

Residues in milk at 7 days after treatment relative to ACVM MRLs [1]: near or above the ACVM MRLs | Residues in milk at 21 days after treatment relative to LOQ [1]: above the LOQ | concentration at 7 day ([1]; milk fat, 0.3 mg/kg, nominal 0.3 mg/kg single IM dose of ML/Rotavec Corona combination, milk fat, read-out: ML residue in milk fat, Day 7): 800 ng/g | concentration at 14 day ([1]; milk fat, 0.3 mg/kg, nominal 0.3 mg/kg single IM dose of ML/Rotavec Corona combination, milk fat, read-out: ML residue in milk fat, Day 14): 140 ng/g | concentration at 21 day ([1]; milk fat, 0.3 mg/kg, nominal 0.3 mg/kg single IM dose of ML/Rotavec Corona combination, milk fat, read-out: ML residue in milk fat, Day 21): 59 ng/g | concentration at 7 day ([1]; milk fat, 0.4 mg/kg, nominal 0.4 mg/kg single IM dose of ML/Rotavec Corona combination, milk fat, read-out: ML residue in milk fat, Day 7): 860 ng/g | concentration at 7 day ([1]; milk, 0.3 mg/kg, nominal 0.3 mg/kg single IM dose of ML/Rotavec Corona combination, milk (whole milk), read-out: ML residue in milk, Day 7): 40 ng/g | concentration at 14 day ([1]; milk, 0.3 mg/kg, nominal 0.3 mg/kg single IM dose of ML/Rotavec Corona combination, milk (whole milk), read-out: ML residue in milk, Day 14): 7.8 ng/g | concentration at 21 day [1, 4]: 2.6 ng/g | concentration at 7 day ([1]; milk, 0.4 mg/kg, nominal 0.4 mg/kg single IM dose of ML/Rotavec Corona combination, milk (whole milk), read-out: ML residue in milk, Day 7): 50 ng/g | ML residue in milk fat, Day 7 [1, 6]: 1.1 mg/kg and 1.0 mg/kg and 0.75 mg/kg | ML residue in milk fat, Day 14 [1, 6]: 0.26 mg/kg and 0.24 mg/kg and 0.18 mg/kg | ML residue in milk fat, Day 7 [1, 8]: 1.2 mg/kg and 1.5 mg/kg and 1.0 mg/kg
Structure (SMILES): CO/N=C1\C[C@]2(C[C@@H]3C[C@@H](C/C=C(\C)C[C@@H](C)/C=C/C=C4\CO[C@@H]5[C@H](O)C(C)=C[C@@H](C(=O)O3)[C@]45O)O2)O[C@H](/C(C)=C/C(C)C)[C@H]1C [Moxidectin, moxidectin]
ML residue in milk, Day 7 [1, 5]: 0.063 mg/kg and 0.042 mg/kg and 0.034 mg/kg | ML residue in milk, Day 14 [1, 5]: 0.010 mg/kg and 0.0099 mg/kg and 0.0079 mg/kg | ML residue in milk, Day 21 [1, 5]: 0.0040 mg/kg and 0.0031 mg/kg and 0.0041 mg/kg | ML residue in milk fat, Day 21 [1, 6]: 0.080 mg/kg and 0.068 mg/kg and 0.075 mg/kg | ML residue in milk, Day 7 [1, 7]: 0.044 mg/kg and 0.056 mg/kg and 0.037 mg/kg | ML residue in milk, Day 14 [1, 7]: 0.0081 mg/kg and 0.012 mg/kg and 0.015 mg/kg and 0.0069 mg/kg | ML residue in milk, Day 21 [1, 7]: 0.0055 mg/kg (2×) and 0.0037 mg/kg and 0.0023 mg/kg | ML residue in milk fat, Day 14 [1, 8]: 0.17 mg/kg and 0.37 mg/kg and 0.47 mg/kg and 0.15 mg/kg | ML residue in milk fat, Day 21 [1, 8]: 0.091 mg/kg and 0.12 mg/kg and 0.14 mg/kg and 0.057 mg/kg

Structure (SMILES): CCC(C)C1OC2(C=CC1C)CC1CC(CC=C(C)C(OC3CC(OC)C(OC4CC(OC)C(NC(C)=O)C(C)O4)C(C)O3)C(C)C=CC=C3COC4C(O)C(C)=CC(C(=O)O1)C34O)O2 (stereo not shown) [Eprinomectin]
Parent compound share of residues in feces [2, 9]: more than 85% | Parent compound share of residues in tissues [2, 9]: 90% | Milk-plasma coefficient ([2]; cattle): ≤ 0.2 | Residues in milk at 14 days after treatment relative to LOQ ([1]; all study animals (0.3 and 0.4 mg/kg IM)): below the limit of quantitation (LOQ) | Residues in milk at 7 days after treatment ([1]; all study animals (0.3 and 0.4 mg/kg IM), compared with MRL): < 0.02 mg/kg | Withholding period (milk) ([1]; estimated from residue data relative to the MRLs that apply in Europe): 7 days | ML residue in milk, Day 14 [1, 5]: <0.0010 mg/kg | ML residue in milk, Day 21 [1, 5]: <0.0010 mg/kg | ML residue in milk, Day 7 ([1]; nominal 0.3 mg/kg single IM dose of ML/Rotavec Corona combination, milk (whole milk), listed as Eprinomectin B1a): 0.0012 mg/kg and 0.0017 mg/kg and <0.0010 mg/kg and 0.0023 mg/kg | ML residue in milk, Day 14 [1, 7]: <0.0010 mg/kg | ML residue in milk, Day 21 [1, 7]: <0.0010 mg/kg | ML residue in milk, Day 7 ([1]; nominal 0.4 mg/kg single IM dose of ML/Rotavec Corona combination, milk (whole milk), listed as Eprinomectin B1a): <0.0010 mg/kg (2×) and 0.0021 mg/kg and 0.0013 mg/kg | Elimination in milk, fold less than ivermectin or moxidectin [3]: 50 fold | Share of the total dose eliminated in the milk [3]: 0.1% | Injection site reactions, Count, Day 1 (cattle; 0.3 mg/kg IM): 0 | Injection site reactions, Count, Day 3 (cattle; 0.3 mg/kg IM): 1 | Injection site reactions, Count, Day 7 (cattle; 0.3 mg/kg IM): 1 | Injection site reactions, Count, Day 14 (cattle; 0.3 mg/kg IM): 1 | Injection site reactions, Count, Day 21 (cattle; 0.3 mg/kg IM): 1 | Animals with injection site reactions that persisted at least until 21 days after treatment (cattle; 0.3 mg/kg IM): One | Injection site reactions, Count, Day 1 (cattle; 0.4 mg/kg IM): 2 | Injection site reactions, Count, Day 3 (cattle; 0.4 mg/kg IM): 2 | Injection site reactions, Count, Day 7 (cattle; 0.4 mg/kg IM): 1 | Injection site reactions, Count, Day 14 (cattle; 0.4 mg/kg IM): 1 | Injection site reactions, Count, Day 21 (cattle; 0.4 mg/kg IM): 1 | Animals with injection site reactions that persisted at least until 21 days after treatment (cattle; 0.4 mg/kg IM): One

Residues in milk at 7 days after treatment relative to ACVM MRLs [1]: near or above the ACVM MRLs | Residues in milk at 21 days after treatment relative to LOQ [1]: above the LOQ | concentration at 21 day [1, 4]: < 1 ng/g | concentration at 21 day ([1]; milk, 0.4 mg/kg, nominal 0.4 mg/kg single IM dose of ML/Rotavec Corona combination, milk (whole milk), read-out: ML residue in milk, Day 21): 1 ng/g | ML residue in milk, Day 21 [1, 5]: <0.0010 mg/kg (2×) and 0.0020 mg/kg | ML residue in milk, Day 21 [1, 7]: 0.0014 mg/kg (2×) and <0.0010 mg/kg
Structure (SMILES): CO[C@H]1C[C@H](O[C@H]2[C@H](C)O[C@@H](O[C@@H]3/C(C)=C/C[C@@H]4C[C@@H](C[C@]5(C=C[C@H](C)[C@@H](C6CCCCC6)O5)O4)OC(=O)[C@@H]4C=C(C)[C@@H](O)[C@H]5OC/C(=C\C=C\[C@@H]3C)[C@]54O)C[C@@H]2OC)O[C@@H](C)[C@@H]1O [Doramectin]
ML residue in milk, Day 7 [1, 5]: 0.0058 mg/kg and 0.0037 mg/kg and 0.0077 mg/kg and 0.0079 mg/kg | ML residue in milk, Day 14 [1, 5]: <0.0010 mg/kg and 0.0012 mg/kg and 0.0031 mg/kg and 0.0015 mg/kg | ML residue in milk, Day 7 [1, 7]: 0.014 mg/kg and 0.0061 mg/kg and 0.011 mg/kg and 0.0056 mg/kg | ML residue in milk, Day 14 [1, 7]: 0.0025 mg/kg (2×) and 0.0028 mg/kg and <0.0010 mg/kg
